Legend:
[1] = molecular target: human C-terminal DNMT3A (a.a. 623-908) (Homo sapiens, UniProt Q9Y6K1); experiment: DNMT3A restriction-based fluorescence enzyme inhibition assay; format: biochemical; settings: for inhibition at 20 µM / inhibition at 10 µM / inhibition at 32 µM: read-out: Inhibition [%] of DNMT3A catalytic activity; for Inhibition [%] of DNMT3A catalytic activity: mean±SEM where given, otherwise single determination
[2] = tested on: luciferase reporter under control of methylated CMV promoter in KG-1 cells; experiment: CMV-luc reexpression in KG-1 cells; format: cell-based, human; settings: 24 h; for Fold reactivation of luciferase (CMV-luc): vs untreated cells, mean±SEM
DNMT1 = settings: compared with SGI-1027; cited from earlier work
hDNMT1 = hDNMT1 (Homo sapiens, UniProt P26358); experiment: DNMT1 [methyl-3H]SAM FlashPlate assay; format: biochemical
hDNMT1, sequence (P26358 whole entry): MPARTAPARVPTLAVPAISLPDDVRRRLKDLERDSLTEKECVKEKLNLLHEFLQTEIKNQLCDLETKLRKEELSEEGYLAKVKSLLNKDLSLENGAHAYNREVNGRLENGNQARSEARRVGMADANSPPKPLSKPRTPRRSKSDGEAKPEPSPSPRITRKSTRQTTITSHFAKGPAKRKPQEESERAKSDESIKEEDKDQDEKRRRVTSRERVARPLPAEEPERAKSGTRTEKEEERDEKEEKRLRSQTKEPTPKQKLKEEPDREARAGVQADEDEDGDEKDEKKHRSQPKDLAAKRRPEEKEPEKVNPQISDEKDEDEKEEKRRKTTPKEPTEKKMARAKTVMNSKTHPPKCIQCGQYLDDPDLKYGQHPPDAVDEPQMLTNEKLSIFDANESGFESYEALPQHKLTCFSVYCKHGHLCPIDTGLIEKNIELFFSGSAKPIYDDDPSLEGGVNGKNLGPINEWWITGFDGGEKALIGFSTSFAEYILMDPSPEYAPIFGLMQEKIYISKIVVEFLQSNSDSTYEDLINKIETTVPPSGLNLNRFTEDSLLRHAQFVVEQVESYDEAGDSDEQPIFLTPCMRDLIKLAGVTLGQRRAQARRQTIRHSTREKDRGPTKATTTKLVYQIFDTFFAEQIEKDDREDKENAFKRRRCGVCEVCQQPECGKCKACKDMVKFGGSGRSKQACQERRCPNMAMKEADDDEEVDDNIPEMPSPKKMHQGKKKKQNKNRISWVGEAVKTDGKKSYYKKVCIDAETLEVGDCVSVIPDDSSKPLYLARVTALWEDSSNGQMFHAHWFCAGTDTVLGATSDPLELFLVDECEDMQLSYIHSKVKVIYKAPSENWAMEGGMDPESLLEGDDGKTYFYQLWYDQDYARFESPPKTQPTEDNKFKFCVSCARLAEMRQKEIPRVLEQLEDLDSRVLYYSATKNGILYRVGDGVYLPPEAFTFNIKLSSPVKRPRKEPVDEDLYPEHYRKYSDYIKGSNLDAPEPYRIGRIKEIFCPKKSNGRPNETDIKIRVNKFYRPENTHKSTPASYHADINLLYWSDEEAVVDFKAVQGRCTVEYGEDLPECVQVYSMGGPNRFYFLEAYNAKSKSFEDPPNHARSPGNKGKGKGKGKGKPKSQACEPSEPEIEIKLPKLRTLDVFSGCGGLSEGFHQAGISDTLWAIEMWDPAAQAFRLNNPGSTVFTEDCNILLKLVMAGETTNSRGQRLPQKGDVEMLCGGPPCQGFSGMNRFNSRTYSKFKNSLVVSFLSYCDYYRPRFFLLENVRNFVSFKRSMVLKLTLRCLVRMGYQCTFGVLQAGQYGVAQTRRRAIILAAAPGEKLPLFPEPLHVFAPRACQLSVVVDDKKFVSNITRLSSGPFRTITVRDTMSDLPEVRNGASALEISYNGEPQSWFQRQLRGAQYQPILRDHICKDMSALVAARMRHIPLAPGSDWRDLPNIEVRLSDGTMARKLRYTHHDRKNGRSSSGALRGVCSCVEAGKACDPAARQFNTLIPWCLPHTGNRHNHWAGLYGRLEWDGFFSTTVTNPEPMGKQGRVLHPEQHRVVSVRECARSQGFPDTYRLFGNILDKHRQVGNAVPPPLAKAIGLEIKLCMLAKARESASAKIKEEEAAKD

[3] = molecular target: T1, histone lysine methyltransferases G9a (Homo sapiens, UniProt Q96KQ7); experiment: G9A inhibition assay; format: biochemical
T1 sequence (Q96KQ7 1-1210): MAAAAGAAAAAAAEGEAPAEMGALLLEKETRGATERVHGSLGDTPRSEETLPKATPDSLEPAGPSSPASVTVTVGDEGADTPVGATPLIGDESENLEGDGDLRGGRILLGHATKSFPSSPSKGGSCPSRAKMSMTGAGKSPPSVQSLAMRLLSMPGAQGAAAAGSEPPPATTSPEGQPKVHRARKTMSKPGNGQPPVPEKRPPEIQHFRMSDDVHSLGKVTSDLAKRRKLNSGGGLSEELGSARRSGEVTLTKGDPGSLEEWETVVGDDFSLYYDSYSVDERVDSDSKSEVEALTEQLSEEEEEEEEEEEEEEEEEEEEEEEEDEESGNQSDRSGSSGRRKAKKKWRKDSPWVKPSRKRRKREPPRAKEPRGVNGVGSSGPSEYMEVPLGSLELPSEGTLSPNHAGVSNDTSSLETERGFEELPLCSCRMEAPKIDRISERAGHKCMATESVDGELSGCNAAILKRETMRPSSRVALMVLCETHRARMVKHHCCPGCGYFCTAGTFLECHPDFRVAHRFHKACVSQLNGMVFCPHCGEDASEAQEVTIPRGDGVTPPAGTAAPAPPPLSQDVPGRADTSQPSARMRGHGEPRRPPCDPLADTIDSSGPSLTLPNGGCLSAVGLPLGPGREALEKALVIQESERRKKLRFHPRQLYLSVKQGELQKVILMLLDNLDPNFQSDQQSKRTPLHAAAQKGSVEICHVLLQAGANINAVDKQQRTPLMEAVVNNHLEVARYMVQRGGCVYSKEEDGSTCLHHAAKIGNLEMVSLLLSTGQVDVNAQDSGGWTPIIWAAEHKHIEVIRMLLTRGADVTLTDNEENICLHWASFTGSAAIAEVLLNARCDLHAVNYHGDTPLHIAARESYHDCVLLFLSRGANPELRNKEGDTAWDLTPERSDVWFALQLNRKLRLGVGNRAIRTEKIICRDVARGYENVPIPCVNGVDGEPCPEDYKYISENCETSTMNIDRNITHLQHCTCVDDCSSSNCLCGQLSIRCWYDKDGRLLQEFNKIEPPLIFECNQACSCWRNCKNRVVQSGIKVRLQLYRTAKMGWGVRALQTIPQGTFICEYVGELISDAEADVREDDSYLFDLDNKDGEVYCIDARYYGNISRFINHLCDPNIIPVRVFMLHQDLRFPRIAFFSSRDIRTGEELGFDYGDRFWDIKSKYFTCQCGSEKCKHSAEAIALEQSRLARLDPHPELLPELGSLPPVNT

human C-terminal DNMT3A (a.a. 623-908), sequence (Q9Y6K1 627-912): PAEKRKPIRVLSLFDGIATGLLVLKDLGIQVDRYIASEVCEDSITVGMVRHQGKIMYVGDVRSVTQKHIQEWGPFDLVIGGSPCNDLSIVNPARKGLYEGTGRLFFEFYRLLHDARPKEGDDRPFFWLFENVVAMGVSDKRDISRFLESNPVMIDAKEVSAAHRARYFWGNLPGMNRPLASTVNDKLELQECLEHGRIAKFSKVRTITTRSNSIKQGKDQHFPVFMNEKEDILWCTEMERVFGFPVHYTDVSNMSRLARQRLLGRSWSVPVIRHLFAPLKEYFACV

Row | inhibition at 10 µM [1] [%] | inhibition at 32 µM [1] [%] | Compound | also measured
1 | 32 | 91 ± 4 | Cc1cc(Nc2ccc(NC(=O)c3ccc(Nc4ccncc4)cc3)cc2)nc(N)n1 [Compound 10, N-[4-(2-Amino-6-methylpyrimidin-4-ylamino)phenyl]-4-(pyridin-4-ylamino)benzamide] | EC50 [1]: 13 µM
2 | 25 | 19 | Cc1cc(Nc2ccc(NC(=O)c3ccc(Nc4ncnc5ccccc45)cc3)cc2)nc(N)n1 [Compound 14, N-[4-(2-Amino-6-methylpyrimidin-4-ylamino)phenyl]-4-(quinazolin-4-ylamino)benzamide] | 
3 | 8 |  | Cc1cc(Nc2ccc(NC(=O)c3ccc(Nc4ncnc5nc[nH]c45)cc3)cc2)nc(N)n1 [Compound 17, N-[4-(2-Amino-6-methylpyrimidin-4-ylamino)phenyl]-4-(7H-purin-6-ylamino)benzamide] | inhibition at 20 µM [1]: 3%
4 | 56 ± 11 | 47 ± 1 | Cc1cc(Nc2ccc(C(=O)Nc3ccc(Nc4ccnc5ccccc45)cc3)cc2)nc(N)n1 [Compound 30, N-[4-(Quinolin-4-ylamino)phenyl]-4-(2-amino-6-methylpyrimidin-4-ylamino)benzamide] | DNMT1 degradation (in words) (DNMT1): lower efficiency on DNMT1 degradation than SGI-1027
5 | 73 ± 3 | 75 ± 8 | O=C(Nc1ccc(Nc2ccnc3ccccc23)cc1)c1ccc(Nc2ccncc2)cc1 [Compound 31, N-[4-(Quinolin-4-ylamino)phenyl]-4-(pyridin-4-ylamino)benzamide] | EC50 [1]: 0.9 µM; efficacy of hDNMT3A inhibition ([1]; maximal efficacy of the dose–response curve): 90%; EC50 (hDNMT1): 15 ± 3 µM; Fold reactivation of luciferase (CMV-luc) ([2]; 0.1 μM): 1.1±0.1 fold; Fold reactivation of luciferase (CMV-luc) ([2]; 0.32 μM): 1.3±0.2 fold; Fold reactivation of luciferase (CMV-luc) ([2]; 0.5 μM): 1.6±0.3 fold; Fold reactivation of luciferase (CMV-luc) ([2]; 1 μM): 2.0±0.2 fold; Fold reactivation of luciferase (CMV-luc) ([2]; 3.2 μM): 3.9±0.3 fold; Fold reactivation of luciferase (CMV-luc) ([2]; 5 μM): 3.9±0.1 fold; Fold reactivation of luciferase (CMV-luc) ([2]; 10 μM): 3.2±0.5 fold; concentration from which luciferase expression was reactivated [2]: ≥ 1 µM; IC50 [3]: 28 ± 4 µM
6 | 53 ± 8 | 53 ± 13 | Nc1cc(Nc2ccc(C(=O)Nc3ccc(Nc4ccnc5ccccc45)cc3)cc2)nc(N)n1 [Compound 32, N-[4-(Quinolin-4-ylamino)phenyl]-4-(2,6-diaminopyrimidin-4-ylamino)benzamide] | plateau of DNMT3A inhibition ([1]; plateau between 32 and 1 μM, no dose–response curve (data not shown)): 50%
7 | 74 ± 5 | 76 ± 5 | Cc1cc(Nc2ccc(NC(=O)c3ccc(Nc4ccnc5ccccc45)cc3)cc2)nc(N)n1 [SGI-1027, N-(4-(2-amino-6-methylpyrimidin-4-ylamino)phenyl)-4-(quinolin-4-ylamino)benzamide, reference compound] | 

Continued, compound first:

Row | Compound | inhibition at 10 µM [1] [%] | inhibition at 32 µM [1] [%] | also measured
8 | Cc1cc(Nc2ccc(NC(=O)c3ccc([N+](=O)[O-])cc3)cc2)nc(N)n1 [Compound 8, N-[4-(2-Amino-6-methylpyrimidin-4-ylamino)phenyl]-4-nitrobenzamide] |  |  | inhibition at 20 µM [1]: 1%
9 | Cc1cc(Nc2ccc(NC(=O)c3ccc(N)cc3)cc2)nc(N)n1 [Compound 9, N-[4-(2-Amino-6-methylpyrimidin-4-ylamino)phenyl]-4-aminobenzamide] |  |  | inhibition at 20 µM [1]: 0%
10 | Cc1cc(Nc2ccc(NC(=O)c3ccc(Nc4ncccn4)cc3)cc2)nc(N)n1 [Compound 11, N-[4-(2-Amino-6-methylpyrimidin-4-ylamino)-phenyl]-4-(pyrimidin-2-ylamino)benzamide] | 17 | 65 ± 3 | 
11 | COc1nc(Nc2ccc(C(=O)Nc3ccc(Nc4cc(C)nc(N)n4)cc3)cc2)nc(OC)n1 [Compound 13, N-[4-(2-Amino-6-methylpyrimidin-4-ylamino)phenyl]-4-(4,6-dimethoxy-1,3,5-triazin-2-ylamino)benzamide] | 36 | 35 | 
12 | Cc1cc(Nc2ccc(NC(=O)c3ccc(Nc4ncnc5cc(F)ccc45)cc3)cc2)nc(N)n1 [Compound 15, N-[4-(2-Amino-6-methylpyrimidin-4-ylamino)phenyl]-4-(7-fluoroquinazolin-4-ylamino)benzamide] | 19 | 6 | 
13 | Cc1cc(Nc2ccc(NC(=O)c3ccc(Nc4cc(-c5ccccc5)nc5ccccc45)cc3)cc2)nc(N)n1 [Compound 16, N-[4-(2-Amino-6-methylpyrimidin-4-ylamino)phenyl]-4-(2-phenylquinolin-4-ylamino)benzamide] | 81 ± 5 | 55 ± 10 | EC50 [1]: 1.6 µM; Fold reactivation of luciferase (CMV-luc) ([2]; 0.1 μM): 1.0±0.1 fold; Fold reactivation of luciferase (CMV-luc) ([2]; 1 μM): 1.3±0.1 fold; Fold reactivation of luciferase (CMV-luc) ([2]; 3.2 μM): 5.5±1.3 fold; Fold reactivation of luciferase (CMV-luc) ([2]; 5 μM): 6.0±2.0 fold; Fold reactivation of luciferase (CMV-luc) ([2]; 10 μM): 6.1±2.7 fold
14 | CNc1ccc(C(=O)Nc2ccc(Nc3cc(C)nc(N)n3)cc2)cc1 [Compound 23, N-[4-(2-Amino-6-methylpyrimidin-4-ylamino)phenyl]-4-(methylamino)benzamide] | 0 |  | inhibition at 20 µM [1]: 0%
15 | O=C(Nc1ccc(Nc2ccnc3ccccc23)cc1)c1ccc(Nc2cc(-c3ccccc3)nc3ccccc23)cc1 [Compound 33, N-[4-(Quinolin-4-ylamino)phenyl]-4-(2-phenylquinolin-4-ylamino)benzamide] | 29 | 46 | 
16 | O=C(Nc1ccc(Nc2ccncc2)cc1)c1ccc(Nc2ccncc2)cc1 [Compound 36, N-[4-(Pyridin-4-ylamino)phenyl]-4-(pyridin-4-ylamino)benzamide] | 18 | 54 ± 5 | 
17 | O=C(Nc1ccc(Nc2ccnc3ccccc23)cc1)c1ccc(Nc2ccnc3ccccc23)cc1 [Compound 37, N-[4-(Quinolin-4-ylamino)phenyl]-4-(quinolin-4-ylamino)benzamide] | 39 | 29 | 
18 | O=C(Nc1ccc(Nc2c3ccccc3nc3ccccc23)cc1)c1ccc(Nc2c3ccccc3nc3ccccc23)cc1 [Compound 38, N-[4-(Acridin-9-ylamino)phenyl]-4-(acridin-9-ylamino)benzamide] | 48 ± 8 | 62 ± 22 | 
19 | N-[4-(2-Amino-6-methylpyrimidin-4-ylamino)-phenyl]-4-(pyridin-4-ylmethylamino)benzamide [Compound 25] |  |  | Inhibition [%] of DNMT3A catalytic activity ([1]; 10 μM compound): 0%; Inhibition [%] of DNMT3A catalytic activity ([1]; 32 μM compound): 4%
20 | N-[4-(2-Amino-6-methylpyrimidin-4-ylamino)phenyl]-4-(pyridin-3-ylmethylamino)benzamide [Compound 24] |  |  | Inhibition [%] of DNMT3A catalytic activity ([1]; 10 μM compound): 0%

Source: article PMC4506529 (Chemmedchem, 2014)
